Test results as given in PubChem BioAssay (NCI).
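Results reflect a 48-hour exposure of cells in 96-well plates to compound at five concentrations. TGI: total growth inhibition.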

Key:
Assay in all cases: inhibition of tumour cell growth, NCI panel, 48 h
DLD-1 colon = system: DLD-1 colon
HOP-18 NSCLC = system: HOP-18 NSCLC
DMS 273 small cell lung = system: DMS 273 small cell lung
KM20L2 colon = system: KM20L2 colon
RXF-631 renal = system: RXF-631 renal
DMS 114 small cell lung = system: DMS 114 small cell lung
XF 498 CNS = system: XF 498 CNS
SNB-78 CNS = system: SNB-78 CNS
LXFL 529 NSCLC = system: LXFL 529 NSCLC

Row | SMILES | TGI (DLD-1 colon) [µM] | TGI (HOP-18 NSCLC) [µM] | TGI (DMS 273 small cell lung) [µM] | TGI (KM20L2 colon) [µM] | TGI (RXF-631 renal) [µM] | TGI (DMS 114 small cell lung) [µM] | TGI (XF 498 CNS) [µM] | TGI (SNB-78 CNS) [µM] | TGI (LXFL 529 NSCLC) [µM]
1 | CSc1cnc2ccccc2c1Sc1cn(C)c2ccccc2c1=O | > 100 | > 100 | > 100 | > 100 | 42.5 | 67.7 | 70.8 | – | –
2 | Cc1[nH]n(C(=O)Cc2ccccc2)c(=O)c1/C=C1\C(=O)C=Cc2ccccc21 | – | 84.6 | > 100 | – | – | > 100 | – | – | –
3 | CCCCCCCCCCCCCCCCCCCCCCC(=O)N[C@H]1CCc2cc(OC)c(OC)c(OC)c2-c2ccc(SC)c(=O)cc21 | – | – | > 100 | 37.1 | 51.4 | – | 61.3 | > 100 | > 100
4 | COc1ccc(Cc2c3cc(OC)c(OC)cc3cc[n+]2C)cc1 | > 26.9 | > 45.8 | – | 24.3 | > 24 | > 28.8 | > 23.4 | > 100 | > 24.6
5 | CCn1c(O)c(C(=O)Nc2cccs2)c(=O)n(CC)c1=S | > 100 | – | – | 32.9 | 41.8 | 31.7 | – | 50.4 | 55.7
6 | CC(=O)NNc1nc(C)c(C(=O)NNC(=O)C(=O)Nc2ccc(C)cc2[N+](=O)[O-])s1 | > 100 | > 100 | > 100 | > 100 | > 100 | > 100 | – | > 100 | > 100
7 | COC(=O)N1C=Cc2c(c(C)c3c([nH]c4ccccc43)c2C)C1C (configuration not stated) | 32.7 | – | 39 | 29.3 | 37.5 | 40 | 34.2 | – | 43.7
8 | O=c1ccn([C@@H]2C[C@H](CO)CS(=O)C2)c(=O)[nH]1 (some centres not stated) | > 100 | > 100 | > 100 | > 100 | – | > 100 | – | – | > 100
9 | N#CC(NNC(=O)c1ccccc1O)c1ccccc1O (configuration not stated) | > 100 | > 100 | > 100 | > 100 | – | – | – | > 100 | > 100
10 | CCCCc1c2c([n+]([O-])c3c1CCCC3)CCCC2 | – | – | > 100 | > 100 | – | > 100 | > 100 | – | > 100
11 | CC1CC(=O)C(CC(=O)O)[C@H]1C(C(=O)C(=O)Nc1cc(Cl)ccc1Cl)[N+](=O)[O-] (some centres not stated) | > 100 | > 100 | – | > 100 | – | > 100 | > 100 | – | –
12 | O=C(O)OC12CCCCCC1C(=O)C1CCCCC12 (configuration not stated) | – | > 100 | > 100 | > 100 | – | > 100 | > 100 | > 100 | > 100
13 | CSC(SC)=C1Sc2cccc(Cl)c2S1 | > 100 | > 100 | > 100 | > 100 | – | 79.8 | 76.9 | > 100 | > 100
